Measurements as given in patent US9309275B2, “3′-deoxy nucleosides for the treatment of HCV” (Idenix Pharmaceuticals, Inc., priority 2013, dated 2016).
Where two headings read alike, the source gives them in different places.

How the values were obtained:
HCV genotype 1b replicon = test: HCV replicon assay (Zluc luciferase reporter); assay type: cell-based
Procedure: Huh-7-derived cell line (Zluc) that harbors an HCV genotype 1b replicon and a luciferase reporter gene was grown in Dulbecco's Modified Eagle Medium (DMEM) supplemented with 10% fetal bovine serum, 2 mM GlutaMAX, 1% MEM nonessential amino acids, 100 IU/mL penicillin, 100 μg/mL streptomycin, and 0.5 mg/mL Geneticin® (G418). For dose response testing the cells were seeded in 96-well plates at 7.5×10^3 cells per well in a volume of 50 μL, and incubated at 37° C./5% CO2. Drug solutions were made up freshly in Huh-7 media as 2× stocks. Ten additional 5-fold dilutions were prepared from these stocks in DMEM without G418. At least three hours after Zluc cells were seeded, drug treatment was initiated by adding 50 μL of drug dilutions to the plates in duplicate. Final concentrations of drug ranged from 100 μM to […]. Cells were then incubated at 37° C./5% CO2. Alternatively, compounds were tested at two concentrations (1 μM and 10 μM). […] For this, media was removed from the plates via gentle tapping. Fifty microliters of ONE-glo luciferase assay reagent was added to each well. The plates were shaken gently for 3 min at room temperature and luminescence was measured on a Victor^3 V 1420 multilabel counter (Perkin Elmer) with a 1 second read time using a 700 nm cut-off filter. The EC50 values were calculated from dose response curves from the resulting best-fit equations determined by Microsoft Excel and XLfit 4.1 software. When screening at two fixed concentrations, the results were expressed as % inhibition at 1 μM and 10 μM.

[1] = Cytotoxicity evaluation, CellTiter-Blue Cell Viability Assay; assay type: cell-based; conditions: human
Procedure: (§1) For cytotoxicity evaluation, Zluc cells were treated with test compound as described herein, and cell viability was monitored using the CellTiter-Blue Cell Viability Assay (Promega) by adding 20 μL of the assay solution to each well. The plates were then incubated at 37° C./5% CO2 for at least 3 hours.

[2] = target: T1, wild-type HCV genotype 1b NS5B protein (Hepatitis C virus genotype 1b, UniProt Q9WMX2); test: HCV polymerase enzyme assay, wild-type; assay type: biochemical
T1 construct: HCV genotype 1b NS5B protein were used to generate recombinant HCV polymerases (with a deletion of the 21 carboxy terminal amino acids); made in house
From the text: (§2) Test compounds in the form of nucleoside triphosphates were examined for inhibitory activity against purified HCV polymerase in a standard assay. Bacterial expression constructs encoding the approximately 65 kDa HCV genotype 1b NS5B protein were used to generate recombinant HCV polymerases (with a deletion of the 21 carboxy terminal amino acids). Both the wild-type genotype 1b protein and protein containing the S282T mutation were expressed and purified for use in the enzymatic activity assay.
(§3) The enzymatic activity assay measured the inhibitory effect of increasing concentrations of test compound on the incorporation of α-[^33P]-labeled nucleotide into trichloroacetic acid-precipitable material. Recombinant polymerase and synthetic RNA template were combined in reaction buffer containing ribonucleoside triphosphates, α-[^33P]-labeled nucleotide and eight concentrations of test compound in three-fold dilutions. […]
(§4) Reactions were terminated by the addition of ice-cold trichloroacetic acid and sodium pyrophosphate to promote precipitation of newly-synthesized ribonucleic acid. Precipitable material from the reactions was collected by filtration onto 96-well filter plates, washed extensively with water, and quantified by liquid scintillation.
(§5) The inhibitory activity of test compounds was determined by fitting results to dose-response curves using XLfit software.

[3] = target: T2, HCV genotype 1b NS5B protein containing the S282T mutation (Hepatitis C virus genotype 1b, UniProt Q9WMX2, S2701T); test: HCV polymerase enzyme assay, S282T mutant; assay type: biochemical; conditions: purified recombinant genotype 1b NS5B with S282T mutation; compounds tested as nucleoside triphosphates
T2 construct: HCV genotype 1b NS5B protein were used to generate recombinant HCV polymerases (with a deletion of the 21 carboxy terminal amino acids); made in house
From the text: as §2, §3, §4, §5

Zluc cells = test: Cytotoxicity evaluation, CellTiter-Blue Cell Viability Assay; assay type: cell-based; conditions: read-out: HCV Replicon CC50
Procedure: as §1

[4] = Huh-7-derived Zluc cells, 72 hours of incubation, read-out: HCV Replicon EC50
[5] = Zluc cells, read-out: HCV Replicon CC50
[6] = read-out: HCV Replicon EC50, Huh-7-derived Zluc cells, 72 hours of incubation
[7] = Hepatitis C virus, 72 h, Huh-7-derived Zluc cells, 72 hours of incubation, read-out: HCV Replicon EC50
[8] = Zluc cells (HCV replicon cells)

| Structure (SMILES) | EC50 (HCV genotype 1b replicon; [4]) | CC50 at 72 h [1, 5] | EC50 (HCV genotype 1b replicon; [7]) | further results |
| --- | --- | --- | --- | --- |
| CC(C)OC(=O)[C@H](C)NP(=O)(OC[C@@H]1C[C@@](C)(F)[C@H](n2ccc(=O)[nH]c2=O)O1)Oc1ccccc1 (single isomer, unassigned) [4b Diastereomer 1] | 0.25 to 1 µM | > 50 µM |  |  |
| C[C@@]1(F)C[C@@H](COP(=O)(O)OP(=O)(O)OP(=O)(O)O)O[C@H]1n1cnc2c(=O)[nH]c(N)nc21 [Compound 101] |  |  |  | IC50 [2]: < 0.25 µM; IC50 [3]: 1 to 10 µM |
| CC(C)OC(=O)[C@H](C)NP(=O)(OC[C@@H]1C[C@@](C)(F)[C@H](n2cnc3c(=O)[nH]c(N)nc32)O1)Oc1ccccc1 (single isomer, unassigned) [1b Diastereomer 1] |  | > 50 µM |  | EC50 (HCV genotype 1b replicon; [6]): 1 to 10 µM |
| CCOc1nc(N)nc2c1ncn2[C@@H]1O[C@H](COP(=O)(N[C@@H](C)C(=O)OC(C)C)Oc2ccccc2)C[C@@]1(C)F (single isomer, unassigned) [2b Diastereomer 1] | > 10 µM | > 50 µM |  |  |
| CC(C)OC(=O)[C@H](C)NP(=O)(OC[C@@H]1C[C@@](C)(F)[C@H](n2ccc(=O)[nH]c2=O)O1)Oc1ccccc1 (single isomer, unassigned) [4b Diastereomer 2] | 1 to 10 µM |  |  | CC50 (Zluc cells): > 50 µM |
| C[C@@]1(F)C[C@@H](CO)O[C@H]1n1ccc(=O)[nH]c1=O [Compound 202] |  |  | > 10 µM | CC50 at 72 h [1, 8]: > 50 µM |
| C[C@@]1(F)C[C@@H](CO)O[C@H]1n1cnc2c(=O)[nH]c(N)nc21 [Compound 201] |  |  | > 10 µM | CC50 at 72 h [1, 8]: > 50 µM |
| CCOc1nc(N)nc2c1ncn2[C@@H]1O[C@H](COP(=O)(N[C@@H](C)C(=O)OC(C)C)Oc2ccccc2)C[C@@]1(C)F (single isomer, unassigned) [2b Diastereomer 2] | 1 to 10 µM |  |  | CC50 (Zluc cells): > 50 µM |
| CCOc1nc(N)nc2c1ncn2[C@@H]1O[C@H](COP(=O)(N[C@H](C)C(=O)OC(C)C)Oc2ccccc2)C[C@@]1(C)F (single isomer, unassigned) [2a Diastereomer 1] |  | > 50 µM | > 10 µM |  |
| CC(C)OC(=O)[C@H](C)NP(=O)(OC[C@@H]1C[C@@](C)(F)[C@H](n2ccc(N)nc2=O)O1)Oc1ccccc1 (single isomer, unassigned) [3b Diastereomer 1] |  | > 50 µM | > 10 µM |  |
| CC(C)OC(=O)[C@H](C)NP(=O)(OC[C@@H]1C[C@@](C)(F)[C@H](n2cnc3c(=O)[nH]c(N)nc32)O1)Oc1ccccc1 (single isomer, unassigned) [lb Diastereomer 2] |  |  |  | EC50 (HCV genotype 1b replicon; [6]): > 10 µM; CC50 (Zluc cells): > 50 µM |
| C[C@@]1(F)C[C@@H](COP(=O)(O)OP(=O)(O)OP(=O)(O)O)O[C@H]1n1ccc(=O)[nH]c1=O [Compound 102] |  |  |  | IC50 [2]: 1 to 10 µM; IC50 [3]: > 10 µM |
